Earlier results in patent publication US6624294B2, “Regioselective synthesis of 2′-O-modified nucleosides” (ISIS Pharmaceuticals, Inc., priority 1999, dated 2003).

Conditions: hydroxylamino function

Row | pKa | Compound
1 | 4.2 | CON [MeONH2]
2 | 3.65 | CON(C)C [MeONHMe2]
3 | 4.75 | CNOC [MeONHMe]
